These results are taken from ChEMBL document CHEMBL5257079, “Discovery of FXR/PPARγ dual partial agonist” (Bioorg Med Chem, 2023).

Data set [1] deals with T1, Bile acid receptor (Homo sapiens, UniProt Q96RI1).
T1 sequence (Q96RI1 whole entry): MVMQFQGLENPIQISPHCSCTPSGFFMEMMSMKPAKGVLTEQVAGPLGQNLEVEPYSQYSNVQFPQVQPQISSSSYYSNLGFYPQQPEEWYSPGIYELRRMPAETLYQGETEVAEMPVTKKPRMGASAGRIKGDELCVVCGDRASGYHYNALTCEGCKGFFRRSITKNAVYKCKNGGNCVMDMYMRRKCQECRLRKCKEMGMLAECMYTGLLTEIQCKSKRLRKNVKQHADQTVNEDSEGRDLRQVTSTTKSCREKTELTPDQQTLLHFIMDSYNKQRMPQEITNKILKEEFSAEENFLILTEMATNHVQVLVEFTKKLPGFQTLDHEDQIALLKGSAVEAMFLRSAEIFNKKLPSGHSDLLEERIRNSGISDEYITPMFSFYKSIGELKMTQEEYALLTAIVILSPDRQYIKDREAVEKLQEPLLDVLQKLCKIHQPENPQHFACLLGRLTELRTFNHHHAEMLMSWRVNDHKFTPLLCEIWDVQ
As to the kind of experiment: Partial agonist activity at FXR-LBD-GST (unknown origin) by TR-FRET assay. In general terms: In TR-FRET formats the signal depends on donor and acceptor labels being close together.

Data set [2] concerns the target T1, Bile acid receptor. As to the kind of experiment: Partial agonist activity at human FXR expressed in Huh-7 cells in presence of CDCA by luciferase reporter gene assay. It counts as cell-based.
Data set [3] addresses T2, Bile acid receptor (Homo sapiens) (UniProt Q96RI1).
T2 sequence (whole entry): T1 sequence (Q96RI1 whole entry)
As to the kind of experiment: Partial agonist activity at human FXR expressed in Huh-7 cells in presence of CDCA by luciferase reporter gene assay relative to GW4064. It counts as cell-based.

Data set [4] addresses T1, Bile acid receptor. As to the kind of experiment: Antagonist activity at FXR-LBD-GST (unknown origin) in presence of GW4064.
The nature of data set [5]: Metabolic stability in mouse liver microsomes assessed as parent compound remaining after 30 mins. It counts as ADME, Microsome. Conditions: read-out: Stability; call rule not given here. For orientation: Liver microsomes are vesicles of endoplasmic reticulum, rich in cytochrome P450 enzymes.
Data set [6] can be described thus: Metabolic stability in mouse liver microsomes assessed as half life. It counts as ADME, Microsome.

Consider `CC(C)(C)c1ccc(Cn2cnc3ccc(C(=O)Nc4ccc(C(=O)O)cc4)cc32)cc1`, for which the EC50 (in general, the concentration needed to bring the measured effect to its halfway point) on Bile acid receptor [1] is “Not Active”.
The same measure, in the same setting: then `CC(C)(C)c1ccc(NC(=O)c2ccc3ncn(Cc4ccc(C(=O)O)cc4)c3c2)cc1`, with “Not Active”; and `CC(C)(C)c1ccc(NC(=O)c2ccc3c(c2)ncn3Cc2ccc(C(=O)O)cc2)cc1`, with “Not Active”.
With `CC(C)(C)c1ccc(Cn2cnc3c(NC(=O)c4ccc(C(=O)O)cc4)cccc32)cc1`, the EC50 came out at 140 nM at Bile acid receptor [1] (read-out: EC50) and 2200 nM at Bile acid receptor [2]. Moreover, the Activity in data set [3] came to 6%.
For the molecule `CC(C)(C)c1ccc(-n2cnc3c(-c4ccc(C(=O)O)cc4)cccc32)cc1`, the EC50 on Bile acid receptor [1] (read-out: EC50) is 510 nM. The IC50 – broadly, the point on the concentration scale where inhibition reaches its midpoint – at Bile acid receptor [4] was 9900 nM. Also, the remaining at 0.5 h in data set [5] was 36.9%. Further, in data set [6], the half-life (commonly how long it takes for the measured level to halve) amounted to 25 min.
Take `CC(C)(C)c1ccc(C(=O)Nc2cccc3c2ncn3-c2ccc(C(=O)O)cc2)cc1`: at Bile acid receptor [1], the EC50 entry is reported as “Not Active”.
On to `CC(C)(C)c1ccc(-n2cnc3c(NC(=O)c4ccc(C(=O)O)cc4)cccc32)cc1`, for which, at Bile acid receptor [1] (read-out: EC50), the EC50 was found to be 490 nM. The remaining at 0.5 h in data set [5] is 37.9%. In addition, the half-life in data set [6] worked out at 24.6 min.
Consider `CC(C)(C)c1ccc(-c2cccc3c2ncn3Cc2ccc(C(=O)O)cc2)cc1`, for which, on Bile acid receptor [1] (read-out: EC50), the EC50 was determined as 760 nM.
For `CC(C)(C)c1ccc(Cn2cnc3cc(C(=O)Nc4ccc(C(=O)O)cc4)ccc32)cc1`, on Bile acid receptor [1], the EC50 result is “Not Active”.
`CC(C)(C)c1ccc(-c2nc3ccccc3n2Cc2ccc(C(=O)O)cc2)cc1`: on Bile acid receptor [1], the EC50 entry is given as “Not Active”.
For the molecule `CC(C)(C)c1ccc(-c2cccc3c2ncn3-c2ccc(C(=O)O)cc2)cc1`, the EC50 result on Bile acid receptor [1] is reported as “Not Active”.
For `CC(C)(C)c1ccc(Cn2cnc3c(NC(=O)Cc4ccc(C(=O)O)cc4)cccc32)cc1`, the EC50 at Bile acid receptor [1] (read-out: EC50) worked out at 410 nM.
Take `CC(C)(C)c1ccc(C(=O)Nc2cccc3c2ncn3Cc2ccc(C(=O)O)cc2)cc1`: the EC50 entry on Bile acid receptor [1] is “Not Active”.
Take `CC(C)(C)c1ccc(Cn2cnc3c(-c4ccc(C(=O)O)cc4)cccc32)cc1`: at Bile acid receptor [1] (read-out: EC50), the EC50 turned out to be 140 nM.
Turning to `CC(C)(C)c1ccc(Cn2c(-c3ccc(C(=O)O)cc3)nc3ccccc32)cc1`, the EC50 result on Bile acid receptor [1] is listed as “Not Active”.
